Measurements taken from ChEMBL document CHEMBL1150179, “The cytotoxic principles of Solanum incanum” (1990).
≈ marks a conversion by molar mass, not a printed value.

test system: not listed separately; assay: Cytotoxicity against human PLC/PRF/5 cells by microassay; assay type: functional; settings: read-out: ED50 (the source's name)

`CCCCCCCCCCCCCCCC(=O)O[C@H]1CC[C@]2(C)[C@H]3CC=C4[C@@H]5[C@@H](C)[C@H](C)CC[C@]5(C(=O)O)CC[C@@]4(C)[C@]3(C)CC[C@H]2C1(C)C` and `CCC(=O)O[C@H]1CC[C@]2(C)[C@H]3CC=C4[C@@H]5[C@@H](C)[C@H](C)CC[C@]5(C(=O)O)CC[C@@]4(C)[C@]3(C)CC[C@H]2C1(C)C` are within 1.5-fold of each other in EC50: 3.54 µg/mL (≈ 5.09 µM) for the first, 2.54 µg/mL (≈ 4.95 µM) for the second.

Compared with `C/C=C/C(=O)O[C@H]1CC[C@]2(C)[C@H]3CC=C4[C@@H]5[C@@H](C)[C@H](C)CC[C@]5(C(=O)O)CC[C@@]4(C)[C@]3(C)CC[C@H]2C1(C)C`, `C[C@H]1[C@H](C)CC[C@]2(C(=O)O)CC[C@]3(C)C(=CC[C@@H]4[C@@]5(C)CC[C@H](O)C(C)(C)[C@@H]5CC[C@]43C)[C@H]12` [URSOLIC ACID] is 1.5-fold higher in EC50: 2.59 µg/mL (≈ 4.94 µM) for the first, 3.89 µg/mL (≈ 8.52 µM) for the second.

`C[C@H]1[C@H](C)CC[C@]2(C(=O)O)CC[C@]3(C)C(=CC[C@@H]4[C@@]5(C)CC[C@H](OC(=O)c6ccccc6)C(C)(C)[C@@H]5CC[C@]43C)[C@H]12` and `C[C@H]1[C@H](C)CC[C@]2(C(=O)O)CC[C@]3(C)C(=CC[C@@H]4[C@@]5(C)CC[C@H](OC(=O)/C=C/c6ccccc6)C(C)(C)[C@@H]5CC[C@]43C)[C@H]12` are within 1.5-fold of each other in EC50: 6.89 µg/mL (≈ 12.3 µM) for the first, 7.24 µg/mL (≈ 12.3 µM) for the second.

Compared with `CC[C@H](C[C@@H](O)[C@@H](C)[C@H]1CC[C@H]2C3=CC(=O)[C@H]4[C@H](C)[C@@H](OC(=O)c5ccccc5)CC[C@]4(C)[C@H]3CC[C@]12C)C(C)C` [CARPESTEROL], `C[C@@H]1CC[C@]2(NC1)O[C@H]1C[C@H]3[C@@H]4CC=C5C[C@@H](O)CC[C@]5(C)[C@H]4CC[C@]3(C)[C@H]1[C@@H]2C` [SOLASODINE] is 2.3-fold lower in EC50: 8.47 µg/mL (≈ 15 µM) for the first, 3.75 µg/mL (≈ 9.07 µM) for the second.

Compared with `C[C@@H]1CC[C@@]2(NC1)O[C@H]1C[C@H]3[C@@H]4CC=C5C[C@@H](O[C@@H]6O[C@H](CO)[C@@H](O[C@@H]7O[C@@H](C)[C@H](O)[C@@H](O)[C@H]7O)[C@H](O)[C@H]6O)CC[C@]5(C)[C@H]4CC[C@]3(C)[C@H]1[C@@H]2C` [KHASIANINE], `C[C@@H]1CC[C@@]2(NC1)O[C@H]1C[C@H]3[C@@H]4CC=C5C[C@@H](O[C@@H]6O[C@H](CO)[C@@H](O[C@@H]7O[C@@H](C)[C@H](O)[C@@H](O)[C@H]7O)[C@H](O)[C@H]6O[C@@H]6O[C@@H](C)[C@H](O)[C@@H](O)[C@H]6O)CC[C@]5(C)[C@H]4CC[C@]3(C)[C@H]1[C@@H]2C` [SOLAMARGINE] is 5.6-fold lower in EC50: 8.6 µg/mL (≈ 11.9 µM) for the first, 1.53 µg/mL (≈ 1.76 µM) for the second.

test system: KB; assay: Cytotoxicity against human KB cells by microassay; assay type: functional; settings: read-out: ED50 (the source's name)

`C[C@@H]1CC[C@]2(NC1)O[C@H]1C[C@H]3[C@@H]4CC=C5C[C@@H](O)CC[C@]5(C)[C@H]4CC[C@]3(C)[C@H]1[C@@H]2C` [SOLASODINE] and `C[C@H]1[C@H](C)CC[C@]2(C(=O)O)CC[C@]3(C)C(=CC[C@@H]4[C@@]5(C)CC[C@H](O)C(C)(C)[C@@H]5CC[C@]43C)[C@H]12` [URSOLIC ACID] are within 1.5-fold of each other in EC50: 3.74 µg/mL (≈ 9.04 µM) for the first, 3.76 µg/mL (≈ 8.23 µM) for the second.
